Earlier results as cited in US7972633B2, “Nutritional supplements for healthy memory and mental function” (Applied Cognitive Sciences, LLC, priority 2007, dated 2011).

Columns and labels:
[1] = test system: healthy adults who have no evidence of cerebral dysfunction; conditions: two days' supplementation with 10, 20 or 40 mg daily, compared to placebo
[2] = test system: patients with mild to moderate transient or permanent impairment of cognitive performance; conditions: 10 or 20 mg three times a day for 16 weeks, compared to placebo

## CCOC(=O)C1=C[C@]2(CC)CCCN3CCc4c(n1c1ccccc41)[C@@H]32 [vinpocetine, Vinpocetine]
[1]
  ability to distinguish discrete sensory data, reaction time, short-term memory functions: significantly greater extent than placebo
[2]
  concentration, memory and severity of illness: significant improvements in concentration, memory, and reduced severity of illness
